In patent US12528790B2, “Amide derivative having antiviral activity” (Shionogi & Co., Ltd., priority 2020, dated 2026):
Like-named read-outs stand apart in the source and are kept apart here.

Experiments:
[1] = system: RSV B (Wash/18537 strain); test: In vitro CPE (CytoPathic Effect) inhibition effect evaluation test, RSV type B; format: cell-based
Procedure: The test sample is diluted in advance to an appropriate concentration with DMSO, and 3-fold series of serial dilutions were prepared on a 384-well plate (0.32 μL/well). HEp-2 cells (CCL-23; ATCC) adjusted at appropriate number (2.4×10^5 cells/mL) in 2% FBS E-MEM (prepared by adding kanamycin and FBS to Eagle's Minimum Essential Medium; Invitrogen) were added at 12.5 μL/well to the 384-well plate previously aliquoted with the test samples. The RSV A2 strain was diluted to an appropriate concentration in a culture medium and added to the 384-well plate containing the test sample at 12.5 μL/well. The culture medium was added additionally to the 384-well plate, and the test was started with 50 μL/well. Control wells were prepared with only virus-free culture medium. The plate was incubated in a 5% CO2 incubator at 37° C. for 4 days, and the plate was then placed at room temperature for 30 minutes. CellTiter-Glo (registered trademark) 2.0 assay (Promega) was added at 15 μL/well, mixed for 30 seconds, and the plate was placed for approximately 1 hour. The luminescent signal was then measured by EnVision (PerkinElmer). The inhibitory effect of the test agents on RSV-induced CPE was calculated as 0% and 100% inhibition rate for each sample concentration based on the level of remaining viable cells by CellTiter-Glo (registered trademark) 2.0, with the EC50 value for each compound calculated by nonlinear regression as the concentration that inhibits RSV-induced CPE by 50%. In the case of evaluation against RSV type B, RSV B (Wash/18537 strain) was infected in the same manner as the type A, cultured for 5 days, and quantitated in the same manner as for the A2 strain.

RSV A2 strain = test: In vitro CPE (CytoPathic Effect) inhibition effect evaluation test, RSV type A; format: cell-based
Procedure, shortened: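 EC50 is the concentration giving 50% inhibition of virus-induced cytopathic effect, fitted by nonlinear regression from CellTiter-Glo 2.0 viability. Compounds in 3-fold series were co-incubated at 37 °C with HEp-2 cells and RSV: A2 strain for 4 days, B (Wash/18537) for 5 days; uninfected wells served as control.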

[2] = human respiratory syncytial virus, inhibitory effect against RSV type B, CPE inhibition, read-out: EC50
[3] = human respiratory syncytial virus, inhibitory effect against RSV type A (RSV A2 strain), HEp-2 cells, CPE inhibition, read-out: EC50
[4] = human respiratory syncytial virus, HEp-2, 120 h, HEp-2 cells, RSV B (Wash/18537 strain), 5 days, CellTiter-Glo, read-out: EC50, inhibitory effect against RSV type B (CPE inhibition)
[5] = human respiratory syncytial virus, HEp-2, 96 h, read-out: EC50, inhibitory effect against RSV type A (CPE inhibition)

**Q.** How did the EC50 [1, 2] turn out when `CC(F)(F)c1nc(-c2cn(C3CCC(F)CC3)c3cc(O[C@H]4CC[C@H](N5CC(F)(F)C5)CC4)ccc23)ncc1C(=O)NC1(C(=O)O)C2CC3CC(C2)CC1C3` (single isomer, unassigned) [Compound I-568] was run?
**A.** The EC50 was less than 10 nM.

**Q.** What about the EC50 (RSV A2 strain; [3]) of the same compound?
**A.** The EC50 was less than 10 nM.

**Q.** Which EC50 [1, 2] does the source give for `O=C(NC1(C(=O)O)C2CC3CC(C2)CC1C3)c1ccc(-c2cn(C3CCC(F)CC3)c3cc(O[C@H]4CC[C@H](N5CC(F)(F)C5)CC4)ccc23)nc1C(F)(F)F` (single isomer, unassigned) [Compound I-579] here?
**A.** The EC50 was less than 10 nM.

**Q.** And the EC50 (RSV A2 strain; [3])?
**A.** Its EC50 is less than 10 nM.

**Q.** `CC(F)(F)c1nc(-c2cn(C3CCC(F)(F)CC3)c3cc(O[C@H]4C[C@@H](N5CC(F)(F)C5)C4)ccc23)ncc1C(=O)NC1(C(=O)O)C2CC3CC(C2)CC1C3` (single isomer, unassigned) [Compound I-619] was tested. Which EC50 [1, 2] did it give?
**A.** The EC50 was less than 10 nM.

**Q.** And the EC50 (RSV A2 strain; [3])?
**A.** The EC50 was less than 10 nM.

**Q.** What does the source list for `CC(F)(F)c1nc(-c2cn(C3CCOCC3)c3cc(OC4CC(N5CC(F)(F)C5)C4)ccc23)ncc1C(=O)NC1(C(=O)O)C2CC3CC(C2)CC1C3` (single isomer, unassigned) [Compound I-621]?
**A.** EC50 [1, 2]: < 10 nM; EC50 (RSV A2 strain; [3]): < 10 nM

**Q.** Which EC50 [1, 2] does the source give for `COCCCCOc1ccc2c(c1C)CCN2c1ncc(C(=O)NC2(C(=O)O)CCCCC2)c(C(F)(F)F)n1` [Compound I-1] here?
**A.** Its EC50 is 100 to 5000 nM.

**Q.** And the EC50 (RSV A2 strain; [3])?
**A.** The EC50 was 10 to 100 nM.

**Q.** `COCCCCOc1ccc2c(c1)CCN2c1ncc(C(=O)NC2(C(=O)O)CCCCC2)c(C(F)(F)F)n1` [Compound I-2] was tested. Which EC50 [1, 2] did it give?
**A.** Its EC50 is 100 to 5000 nM.

**Q.** And the EC50 (RSV A2 strain; [3])?
**A.** The EC50 was 10 to 100 nM.

**Q.** With `COc1cccc(COc2ccc3c(c2)CCN3c2ncc(C(=O)NC3(C(=O)O)CCCCC3)c(C(F)(F)F)n2)c1` [Compound I-3] as the compound, how does the EC50 [1, 2] read?
**A.** Its EC50 is 10 to 100 nM.

**Q.** And the EC50 (RSV A2 strain; [3])?
**A.** The EC50 was 10 to 100 nM.

**Q.** How did the EC50 [1, 2] turn out when `O=C(NC1(C(=O)O)CCCCC1)c1cnc(N2CCc3cc(OCCc4ccccc4)ccc32)nc1C(F)(F)F` [Compound I-4] was run?
**A.** The EC50 was 100 to 5000 nM.

**Q.** What about the EC50 (RSV A2 strain; [3]) of the same compound?
**A.** Its EC50 is 10 to 100 nM.

**Q.** With `N#CCCCCOc1ccc2c(c1)CCN2c1ncc(C(=O)NC2(C(=O)O)CCCCC2)c(C(F)(F)F)n1` [Compound I-5] as the compound, how does the EC50 [1, 2] read?
**A.** The EC50 was 100 to 5000 nM.

**Q.** What about the EC50 (RSV A2 strain; [3]) of the same compound?
**A.** Its EC50 is 10 to 100 nM.

**Q.** What does the source list for `COCCCOc1ccc2c(c1)CCN2c1ncc(C(=O)NC2(C(=O)O)CCCCC2)c(C(F)(F)F)n1` [Compound I-7]?
**A.** EC50 [1, 2]: 100 to 5000 nM; EC50 (RSV A2 strain; [3]): 10 to 100 nM

**Q.** What does the source list for `O=C(NC1(C(=O)O)CCCCC1)c1cnc(N2CCc3cc(OCCC4CCOCC4)ccc32)nc1C(F)(F)F` [Compound I-8]?
**A.** EC50 [1, 2]: 10 to 100 nM; EC50 (RSV A2 strain; [3]): 10 to 100 nM

**Q.** With `COCc1ccc(-c2ccc3c(c2)CCN3c2ncc(C(=O)NC3(C(=O)O)CCCCC3)c(C(F)(F)F)n2)cc1` [Compound I-9] as the compound, how does the EC50 [1, 2] read?
**A.** The EC50 was 100 to 5000 nM.

**Q.** What about the EC50 (RSV A2 strain; [3]) of the same compound?
**A.** Its EC50 is 10 to 100 nM.

**Q.** `COc1cccc(COc2ccc3c(c2)CCN3c2ncc(C(=O)NC3(C(=O)O)C4CC5CC(C4)CC3C5)c(C(F)(F)F)n2)c1` (stereo not shown) [Compound I-21] was tested. Which EC50 [1, 2] did it give?
**A.** Its EC50 is 10 to 100 nM.

**Q.** And the EC50 (RSV A2 strain; [3])?
**A.** Its EC50 is less than 10 nM.

**Q.** Which results are given for `O=C(NC1(C(=O)O)C2CC3CC(C2)CC1C3)c1cnc(N2CCc3cc(OCCC4CCOCC4)ccc32)nc1C(F)(F)F` (stereo not shown) [Compound I-23]?
**A.** EC50 [1, 4]: 16 nM; EC50 (RSV A2 strain; [5]): 0.96 nM

**Q.** What does the source list for `O=C(NC1(C(=O)O)C2CC3CC(C2)CC1C3)c1cnc(N2CCc3cc(OCCN4CCOCC4)ccc32)nc1C(F)(F)F` (stereo not shown) [Compound I-31]?
**A.** EC50 [1, 2]: 10 to 100 nM; EC50 (RSV A2 strain; [3]): < 10 nM

**Q.** For `O=C(NC1(C(=O)O)CCCCC1)c1ccc(N2CCc3cc(OCCC4CCOCC4)ccc32)nc1C(F)(F)F` [Compound I-33], which EC50 [1, 4] is on record?
**A.** The EC50 was 110 nM.

**Q.** And the EC50 (RSV A2 strain; [5])?
**A.** The EC50 was 7.5 nM.

**Q.** For `O=C(NC1(C(=O)O)CCCCC1)c1cnc(N2CCc3cc(OC4CCN(c5ncccn5)CC4)ccc32)nc1C(F)(F)F` [Compound I-36], which EC50 [1, 2] is on record?
**A.** Its EC50 is 10 to 100 nM.

**Q.** What about the EC50 (RSV A2 strain; [3]) of the same compound?
**A.** Its EC50 is less than 10 nM.

**Q.** `O=C(NC1(C(=O)O)C2CC3CC(C2)CC1C3)c1cnc(N2CCc3cc(OC4CCN(c5ncccn5)CC4)ccc32)nc1C(F)(F)F` (stereo not shown) [Compound I-45] was tested. Which EC50 ([1]; inhibitory effect against RSV type B, CPE inhibition, read-out: EC50) did it give?
**A.** Its EC50 is less than 10 nM.

**Q.** What about the EC50 (RSV A2 strain; inhibitory effect against RSV type A (RSV A2 strain), HEp-2 cells, CPE inhibition, read-out: EC50) of the same compound?
**A.** The EC50 was less than 10 nM.

**Q.** With `O=C(NC1(C(=O)O)CCCCC1)c1cnc(N2CC3(CCOCC3)c3cc(OCCC4CCOCC4)ccc32)nc1C(F)(F)F` [Compound I-56] as the compound, how does the EC50 [1, 2] read?
**A.** The EC50 was 10 to 100 nM.

**Q.** What about the EC50 (RSV A2 strain; [3]) of the same compound?
**A.** The EC50 was less than 10 nM.

**Q.** What does the source list for `Cc1nc(N2CCc3cc(OCCC4CCOCC4)ccc32)nc(C(F)(F)F)c1C(=O)NC1(C(=O)O)CCCCC1` [Compound I-72]?
**A.** EC50 [1, 2]: 100 to 5000 nM; EC50 (RSV A2 strain; [3]): < 10 nM
